Legend:
Type in all cases: in vivo
[1] = test system: blackgrass (Alopecurus myosuroides); test: Test A1 preemergence, blackgrass
How it was run: (§1)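 Plants grown in pots of loam/sand mix; preemergence = soil-directed spray on seeded pots, postemergence = spray at 1–2 leaves, height 2–10 cm; test chemicals formulated in non-phytotoxic solvent with surfactant.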

corn (Zea mays) [2] = test: Test A1 preemergence, corn
How it was run: (§2)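 Plants were grown in a loam soil/sand blend, with test chemicals formulated in a non-phytotoxic solvent mixture containing surfactant. Preemergence treatment (corn) was a directed soil spray at planting. Postemergence treatment was applied to plants 2 to 10 cm tall at the one- to two-leaf stage.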

[3] = test system: Foxtail, Giant (giant foxtail, Setaria faberi); test: Test A1 preemergence, Foxtail, Giant
How it was run: as §1

[4] = test system: goosegrass (Eleusine indica); test: Test A1 preemergence, goosegrass
How it was run: as §1

kochia (Bassia scoparia) [5] = test: Test A1 preemergence, kochia
How it was run: as §1

[6] = test system: Oat, Wild (wild oat, Avena fatua); test: Test A1 preemergence, Oat, Wild
How it was run: as §1

[7] = test system: Pigweed, Palmer (palmer amaranth, palmer pigweed, Amaranthus palmeri); test: Test A1 preemergence, Pigweed, Palmer
How it was run: as §1

[8] = test system: ragweed (common ragweed, Ambrosia artemisiifolia); test: Test A1 preemergence, ragweed
How it was run: as §1

[9] = test system: Ryegrass, Italian (Italian ryegrass, Lolium multiflorum); test: Test A1 preemergence, Ryegrass, Italian
How it was run: as §1

soybean (Glycine max) [10] = test: Test A1 preemergence, soybean
How it was run: as §1

[11] = test system: wheat (Triticum aestivum); test: Test A1 preemergence, wheat
How it was run: as §1

[12] = test system: blackgrass (Alopecurus myosuroides); test: Test A1 postemergence, blackgrass; conditions: Postemergence, 0 to 100 scale (0 no effect, 100 complete control)
How it was run: (§3)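 Test compounds were formulated in a non-phytotoxic solvent mixture containing a surfactant. For preemergence, seeds sown in a loam soil–sand blend received a directed soil spray. For postemergence, potted plants in the same soil, 2 to 10 cm tall at the one- to two-leaf stage, were sprayed.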

corn (Zea mays) [13] = test: Test A1 postemergence, corn; conditions: Postemergence
How it was run: as §1

[14] = test system: Foxtail, Giant (giant foxtail, Setaria faberi); test: Test A1 postemergence, Foxtail, Giant; conditions: Postemergence
How it was run: as §3

[15] = test system: goosegrass (Eleusine indica); test: Test A1 postemergence, goosegrass; conditions: Postemergence
How it was run: as §3

kochia (Bassia scoparia) [16] = test: Test A1 postemergence, kochia; conditions: Postemergence
How it was run: as §3

[17] = test system: Oat, Wild (wild oat, Avena fatua); test: Test A1 postemergence, Oat, Wild; conditions: Postemergence
How it was run: as §2

[18] = test system: Pigweed, Palmer (palmer amaranth, palmer pigweed, Amaranthus palmeri); test: Test A1 postemergence, Pigweed, Palmer; conditions: Postemergence
How it was run: as §2

[19] = test system: ragweed (common ragweed, Ambrosia artemisiifolia); test: Test A1 postemergence, ragweed; conditions: Postemergence
How it was run: as §2

[20] = test system: Ryegrass, Italian (Italian ryegrass, Lolium multiflorum); test: Test A1 postemergence, Ryegrass, Italian; conditions: Postemergence
How it was run: as §3

soybean (Glycine max) [21] = test: Test A1 postemergence, soybean; conditions: Postemergence
How it was run: as §3

[22] = test system: wheat (Triticum aestivum); test: Test A1 postemergence, wheat; conditions: Postemergence
How it was run: as §3

[23] = test system: galium (catchweed bedstraw, Galium aparine); test: Test A1 postemergence, galium; conditions: Postemergence
How it was run: as §3

[24] = test system: horseweed (Erigeron canadensis); test: Test A1 postemergence, horseweed; conditions: Postemergence
How it was run: as §3

[25] = test system: barnyardgrass (Echinochloa crus-galli); test: Test B1 flooded paddy test, barnyardgrass; conditions: 250 g ai/ha, Flood, applied to paddy water, 2-leaf stage, visually evaluated after 10 to 14 days
Excerpt: (§4) A dash (-) response means no test result.

[26] = test system: ducksalad (Heteranthera limosa); test: Test B1 flooded paddy test, ducksalad; conditions: 250 g ai/ha, Flood, applied to paddy water, 2-leaf stage, visually evaluated after 10 to 14 days
Excerpt: as §4

rice (Oryza sativa) = test: Test B1 flooded paddy test, rice; conditions: 250 g ai/ha, Flood, applied to paddy water, 2-leaf stage, visually evaluated after 10 to 14 days
Excerpt: as §4

[27] = 31 g ai/ha, 0 to 100 scale (0 no effect, 100 complete control)
[28] = 125 g ai/ha, 0 to 100 scale, 0 no effect, 100 complete control
[29] = 31 g ai/ha, 0 to 100 scale (0 no effect, 100 complete control), 10 days

Cc1c(C2=NO[C@@H]3CCC[C@H]23)cc(N(COC(=O)C(C)(C)C)S(=O)(=O)C(F)(F)F)c(C)c1C [Compound 336, [[(Trifluoromethyl)sulfonyl][2,3,4-trimethyl-5-[(3aR,6aR)-3a,5,6,6a-tetrahydro-4H-cyclopent[d]isoxazol-3-yl]phenyl]amino]methyl 2,2-dimethylpropanoate]
75: Plant response rating, Ducksalad (0 to 100 scale, 0 is no effect, 100 is complete control) [26]
45: Plant response rating, Rice (0 to 100 scale, 0 is no effect, 100 is complete control) (rice (Oryza sativa))
20: Plant response rating, Foxtail, Giant [3, 27] | Plant response rating, Oat, Wild [6, 28] | Plant response rating, Pigweed, Palmer [18, 29] | Plant response rating, Soybean (soybean (Glycine max) [21]; [29])
50: Plant response rating, Ragweed [8, 28] | Plant response rating, Pigweed, Palmer ([18]; 125 g ai/ha, 0 to 100 scale) | Plant response rating, Ragweed [19, 29] | Plant response rating, Soybean (soybean (Glycine max) [21]; 125 g ai/ha, 0 to 100 scale)
30: Plant response rating, Goosegrass [4, 27] | Plant response rating, Ryegrass, Italian [9, 27] | Plant response rating, Ryegrass, Italian [9, 28]
80: Plant response rating, Foxtail, Giant [3, 28] | Plant response rating, Kochia (kochia (Bassia scoparia) [16]; 125 g ai/ha, 0 to 100 scale) | Plant response rating, Ragweed ([19]; 125 g ai/ha, 0 to 100 scale)
40: Plant response rating, Foxtail, Giant ([14]; 125 g ai/ha, 0 to 100 scale)
0: Plant response rating, Blackgrass [1, 27] | Plant response rating, Blackgrass [1, 28] | Plant response rating, Corn (corn (Zea mays) [2]; [27]) | Plant response rating, Corn (corn (Zea mays) [2]; [28]) | Plant response rating, Kochia (kochia (Bassia scoparia) [5]; [27]) | Plant response rating, Kochia (kochia (Bassia scoparia) [5]; [28]) | Plant response rating, Oat, Wild [6, 27] | Plant response rating, Ragweed [8, 27] | Plant response rating, Soybean (soybean (Glycine max) [10]; [27]) | Plant response rating, Soybean (soybean (Glycine max) [10]; [28]) | Plant response rating, Wheat [11, 27] | Plant response rating, Wheat [11, 28] | Plant response rating, Blackgrass ([12]; 31 g ai/ha, 10 days) | Plant response rating, Blackgrass ([12]; 125 g ai/ha) | Plant response rating, Corn (corn (Zea mays) [13]; [29]) | Plant response rating, Corn (corn (Zea mays) [13]; 125 g ai/ha, 0 to 100 scale) | Plant response rating, Foxtail, Giant [14, 29] | Plant response rating, Goosegrass [15, 29] | Plant response rating, Goosegrass ([15]; 125 g ai/ha, 0 to 100 scale) | Plant response rating, Oat, Wild [17, 29] | Plant response rating, Oat, Wild ([17]; 125 g ai/ha, 0 to 100 scale) | Plant response rating, Ryegrass, Italian [20, 29] | Plant response rating, Ryegrass, Italian ([20]; 125 g ai/ha, 0 to 100 scale) | Plant response rating, Wheat [22, 29] | Plant response rating, Wheat ([22]; 125 g ai/ha, 0 to 100 scale) | Plant response rating, Horseweed [24, 29]
60: Plant response rating, Pigweed, Palmer [7, 27] | Plant response rating, Galium [23, 29] | Plant response rating, Horseweed ([24]; 125 g ai/ha, 0 to 100 scale)
95: Plant response rating, Barnyardgrass (0 to 100 scale, 0 is no effect, 100 is complete control) [25]
70: Plant response rating, Goosegrass [4, 28] | Plant response rating, Kochia (kochia (Bassia scoparia) [16]; [29])
100: Plant response rating, Pigweed, Palmer [7, 28] | Plant response rating, Galium ([23]; 125 g ai/ha, 0 to 100 scale)

From US20230278972A1, “SUBSTITUTED HALOALKYL SULFONANILIDE HERBICIDES” (FMC Corporation, priority 2020, published 2023)
